In US20150291593A1, “NOVEL HETEROARYL AND HETEROCYCLE COMPOUNDS, COMPOSITIONS AND METHODS” (HUTCHISON MEDIPHARMA LIMITED, priority 2012, published 2015):
pIC50: −log10 of the molar value. One block for each compound: values may come before it.

Assays:
[1] = target: T1, p110δ/p85α (Homo sapiens, UniProt O00329); assay: Transcreener KINASE Assay, kinase inhibition of p110δ/p85α; assay type: biochemical; settings: for pIC50: read-out: PI3Kδ IC50
T1 construct: purchased Invitrogen
Method: (§1) PI3K kinases including p110α/p85α, p110δ/p85α and p110γ are purchased from Invitrogen, and p110β/p85α is from Millipore.
(§2) Primary screening data and IC50 values are measured using Transcreener™ KINASE Assay (Bellbrook, Catalog #3003-10K). […] It is a universal, homogenous, high throughput screening (HTS) technology using a far-red, competitive fluorescence polarization immunoassay based on the detection of ADP to monitor the activity of enzymes that catalyze group transfer reactions. Briefly, the Transcreener KINASE Assay is designed as a simple two-part, endpoint assay.
(§3) In the first step, the 25 ul kinase reaction is performed by preparing a reaction mixture containing 5 ul test compound (2% DMSO final concentration), 10 ul kinase, buffer (50 mM HEPES, 100 mM NaCl, 1 mM EGTA, 0.03% CHAPS, 3 mM MgCl2, and freshly supplemented 1 mM DTT), and 10 ul 30 uM PIP2/10 uM ATP. The plate is sealed and incubated for 80 min at room temperature. Next, 25 ul ADP detection mix is added per well. The plate is sealed again and incubated for 60 min at room temperature, and then measure fluorescence polarization by Tecan Infinite F500 Reader.
(§4) Data is analyzed and IC50s are generated using the add-in software for Microsoft Excel, Xlfit™ (version 2.0). IH %=(ADP amount under 2% DMSO-ADP amount under test compound)/ADP amount under 2% DMSO.

[2] = target: T2, p110γ (Homo sapiens, UniProt P48736); assay: Transcreener KINASE Assay, kinase inhibition of p110γ; assay type: biochemical; settings: for pIC50: read-out: PI3Kγ IC50
T2 construct: purchased Invitrogen
T2 sequence (P48736 whole entry, species assumed): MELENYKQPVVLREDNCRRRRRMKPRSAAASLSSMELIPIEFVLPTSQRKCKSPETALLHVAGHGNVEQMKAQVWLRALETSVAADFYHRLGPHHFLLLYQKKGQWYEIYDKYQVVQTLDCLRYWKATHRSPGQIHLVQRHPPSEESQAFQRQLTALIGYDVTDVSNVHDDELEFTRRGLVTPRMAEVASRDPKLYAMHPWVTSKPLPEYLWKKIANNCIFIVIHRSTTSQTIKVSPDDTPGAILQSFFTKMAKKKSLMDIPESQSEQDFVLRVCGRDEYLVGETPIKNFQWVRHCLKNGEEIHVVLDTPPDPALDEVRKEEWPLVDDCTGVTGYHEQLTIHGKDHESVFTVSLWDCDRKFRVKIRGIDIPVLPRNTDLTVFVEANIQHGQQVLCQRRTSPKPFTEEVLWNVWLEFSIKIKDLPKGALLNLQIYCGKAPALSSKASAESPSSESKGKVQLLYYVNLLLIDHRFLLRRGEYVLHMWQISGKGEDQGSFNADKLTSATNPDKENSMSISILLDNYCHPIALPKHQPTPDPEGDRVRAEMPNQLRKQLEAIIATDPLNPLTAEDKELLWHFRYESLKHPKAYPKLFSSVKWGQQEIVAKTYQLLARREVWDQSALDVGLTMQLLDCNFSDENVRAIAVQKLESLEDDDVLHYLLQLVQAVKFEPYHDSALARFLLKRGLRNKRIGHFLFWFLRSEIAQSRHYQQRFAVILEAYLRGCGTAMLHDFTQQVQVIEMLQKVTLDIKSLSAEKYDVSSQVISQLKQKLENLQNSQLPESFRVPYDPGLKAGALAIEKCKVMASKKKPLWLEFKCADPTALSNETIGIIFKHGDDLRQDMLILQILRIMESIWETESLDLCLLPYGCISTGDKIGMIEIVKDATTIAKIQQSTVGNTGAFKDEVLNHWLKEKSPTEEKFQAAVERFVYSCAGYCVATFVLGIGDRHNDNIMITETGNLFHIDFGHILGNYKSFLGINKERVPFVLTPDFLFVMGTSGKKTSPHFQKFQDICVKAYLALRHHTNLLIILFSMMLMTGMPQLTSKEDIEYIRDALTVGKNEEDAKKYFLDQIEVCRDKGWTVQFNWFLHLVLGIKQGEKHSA
Method: PI3K kinases including p110α/p85α, p110δ/p85α and p110γ are purchased from Invitrogen, and p110β/p85α is from Millipore. Primary screening data and IC50 values are measured using Transcreener™ KINASE Assay (Bellbrook, Catalog #3003-10K). […] It is a universal, homogenous, high throughput screening (HTS) technology using a far-red, competitive fluorescence polarization immunoassay based on the detection of ADP to monitor the activity of enzymes that catalyze group transfer reactions. Briefly, the Transcreener KINASE Assay is designed as a simple two-part, endpoint assay. […] The plate is sealed and incubated for 80 min at room temperature. Next, 25 ul ADP detection mix is added per well. The plate is sealed again and incubated for 60 min at room temperature, and then measure fluorescence polarization by Tecan Infinite F500 Reader. Data is analyzed and IC50s are generated using the add-in software for Microsoft Excel, Xlfit™ (version 2.0).

[3] = target: T3, p110β/p85α (Homo sapiens, UniProt P42338); assay: Transcreener KINASE Assay, kinase inhibition of p110β/p85α; assay type: biochemical; settings: for pIC50: read-out: PI3Kβ IC50
T3 construct: purchased Millipore
T3 sequence (P42338 whole entry, species assumed): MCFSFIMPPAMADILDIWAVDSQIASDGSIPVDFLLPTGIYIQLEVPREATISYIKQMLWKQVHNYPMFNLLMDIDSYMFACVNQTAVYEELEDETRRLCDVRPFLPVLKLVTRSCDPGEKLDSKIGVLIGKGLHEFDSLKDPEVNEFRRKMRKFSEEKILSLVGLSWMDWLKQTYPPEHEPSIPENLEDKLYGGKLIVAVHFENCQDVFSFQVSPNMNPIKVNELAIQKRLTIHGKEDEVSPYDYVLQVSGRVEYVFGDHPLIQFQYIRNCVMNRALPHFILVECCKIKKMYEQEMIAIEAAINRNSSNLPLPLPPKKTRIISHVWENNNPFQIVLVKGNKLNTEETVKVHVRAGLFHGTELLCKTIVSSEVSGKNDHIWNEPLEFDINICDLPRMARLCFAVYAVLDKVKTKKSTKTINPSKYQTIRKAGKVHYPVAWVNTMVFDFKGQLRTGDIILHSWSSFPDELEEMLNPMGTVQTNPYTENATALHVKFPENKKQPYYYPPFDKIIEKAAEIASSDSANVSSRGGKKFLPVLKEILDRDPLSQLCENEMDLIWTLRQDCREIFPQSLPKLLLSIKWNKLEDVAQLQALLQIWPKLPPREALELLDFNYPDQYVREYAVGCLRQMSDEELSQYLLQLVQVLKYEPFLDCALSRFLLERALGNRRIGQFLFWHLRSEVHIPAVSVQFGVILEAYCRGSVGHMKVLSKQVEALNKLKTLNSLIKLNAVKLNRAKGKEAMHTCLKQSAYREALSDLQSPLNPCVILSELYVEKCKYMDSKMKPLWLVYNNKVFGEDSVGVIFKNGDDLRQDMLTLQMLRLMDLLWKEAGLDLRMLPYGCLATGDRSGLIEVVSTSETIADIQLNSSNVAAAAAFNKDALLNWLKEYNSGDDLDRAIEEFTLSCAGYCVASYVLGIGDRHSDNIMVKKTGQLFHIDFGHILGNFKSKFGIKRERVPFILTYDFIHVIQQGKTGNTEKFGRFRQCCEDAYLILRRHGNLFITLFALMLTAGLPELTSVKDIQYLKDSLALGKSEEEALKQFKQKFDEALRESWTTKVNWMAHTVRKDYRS
T3 sequence (P27986 whole entry partner, species assumed): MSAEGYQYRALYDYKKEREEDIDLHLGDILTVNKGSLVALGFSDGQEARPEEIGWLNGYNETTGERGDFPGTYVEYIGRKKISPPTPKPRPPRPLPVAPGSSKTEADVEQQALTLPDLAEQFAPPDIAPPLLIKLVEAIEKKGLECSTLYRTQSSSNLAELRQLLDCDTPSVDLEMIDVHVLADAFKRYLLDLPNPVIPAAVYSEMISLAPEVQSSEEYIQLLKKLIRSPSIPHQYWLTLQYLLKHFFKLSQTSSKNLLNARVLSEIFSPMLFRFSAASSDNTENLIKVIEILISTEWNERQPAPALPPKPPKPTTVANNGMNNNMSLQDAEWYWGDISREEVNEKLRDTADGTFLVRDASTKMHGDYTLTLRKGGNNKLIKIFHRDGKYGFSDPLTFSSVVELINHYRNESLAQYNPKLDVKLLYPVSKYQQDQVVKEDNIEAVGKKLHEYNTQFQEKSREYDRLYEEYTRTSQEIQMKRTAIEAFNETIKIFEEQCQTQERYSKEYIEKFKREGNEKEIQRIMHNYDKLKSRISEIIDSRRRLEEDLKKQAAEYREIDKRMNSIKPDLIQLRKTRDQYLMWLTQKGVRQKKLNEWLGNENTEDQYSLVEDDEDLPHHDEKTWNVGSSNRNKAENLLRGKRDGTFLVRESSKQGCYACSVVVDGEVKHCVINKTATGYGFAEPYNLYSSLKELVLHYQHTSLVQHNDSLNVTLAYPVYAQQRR
Method: as §1, §2, §3, §4

[4] = target: T4, PI3Kγ (Mus musculus, UniProt Q9JHG7); assay: Acumen Assay - Raw264.7 p-AKT Assay (C5a stimulated); assay type: cell-based; settings: Raw264.7 macrophage cells, compound 30 min, 10 nM C5a 5 min, p-AKT (Ser473) readout; read-out: PI3Kγ cell-C5a Raw264.7 IC50
T4 construct: endogenous in cells; host or cells: Raw264.7 macrophage cells
T4 sequence (Q9JHG7 whole entry): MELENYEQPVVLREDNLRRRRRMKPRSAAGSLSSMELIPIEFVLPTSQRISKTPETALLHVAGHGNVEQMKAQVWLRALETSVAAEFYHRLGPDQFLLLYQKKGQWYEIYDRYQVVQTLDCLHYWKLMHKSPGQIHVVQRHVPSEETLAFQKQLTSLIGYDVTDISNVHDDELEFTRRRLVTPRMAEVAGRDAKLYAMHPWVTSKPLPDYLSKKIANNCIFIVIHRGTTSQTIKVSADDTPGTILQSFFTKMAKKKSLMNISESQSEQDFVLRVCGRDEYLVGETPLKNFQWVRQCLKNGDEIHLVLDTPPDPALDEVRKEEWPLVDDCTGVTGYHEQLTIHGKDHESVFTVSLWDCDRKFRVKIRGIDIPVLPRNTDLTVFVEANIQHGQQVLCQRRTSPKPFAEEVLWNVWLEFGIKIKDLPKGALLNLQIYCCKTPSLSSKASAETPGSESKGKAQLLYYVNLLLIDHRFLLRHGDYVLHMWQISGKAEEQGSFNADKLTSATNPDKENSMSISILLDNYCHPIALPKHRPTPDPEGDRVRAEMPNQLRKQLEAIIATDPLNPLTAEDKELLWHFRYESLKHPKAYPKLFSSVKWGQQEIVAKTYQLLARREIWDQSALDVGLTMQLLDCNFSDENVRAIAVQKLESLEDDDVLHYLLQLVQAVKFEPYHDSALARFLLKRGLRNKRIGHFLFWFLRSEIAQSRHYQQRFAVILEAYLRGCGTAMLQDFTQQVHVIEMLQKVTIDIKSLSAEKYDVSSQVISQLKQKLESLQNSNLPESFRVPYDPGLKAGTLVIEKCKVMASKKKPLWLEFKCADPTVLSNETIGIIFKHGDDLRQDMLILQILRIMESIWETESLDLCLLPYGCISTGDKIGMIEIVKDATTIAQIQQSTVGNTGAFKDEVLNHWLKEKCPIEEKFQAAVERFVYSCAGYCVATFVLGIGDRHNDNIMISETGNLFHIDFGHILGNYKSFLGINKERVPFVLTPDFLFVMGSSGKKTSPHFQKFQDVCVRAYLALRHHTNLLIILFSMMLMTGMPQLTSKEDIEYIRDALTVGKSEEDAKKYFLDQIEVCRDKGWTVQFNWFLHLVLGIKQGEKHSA
Method: Acumen® eX3 (A Mμltilaser Microplate Cytometer For Enhanced High Content Screening): TTP LabTech
3×10^4 Raw264.7 macrophage cells were seeded into 96-well plates with DMEM+10% heat-inactivated FBS at […], 90 ul/well, overnight. After starvation for 3 hr at 37° C. under 5% CO2, Raw264.7 cells were treated with 10 ul/well various concentrations of compound or 0.5% DMSO for 30 min, and then stimulated with 10 ul/well 10 nM C5a for 5 min.
1.) Cells were fixed 110 μL of 4% pre-warmed Paraformaldehyde (2% final), incubate for 45 min at room temperature.
2.) Remove paraformaldehyde solution. Add 100 μL of ice-cold 0.1% Triton X-100 in PBS and leave at 4° C. for 30 min.
3.) Wash once in 100 μL PBS.
4.) Incubate with 100 μL blocking buffer (1% BSA, in PBS) for 2 hours at room temperature.
5.) Wash once for 5 min with 100 ul PBS.
6.) Incubate with 40 μL 1:200 dilution of phospho AKT (Ser473) rabbit antibody in antibody dilution buffer (0.1% BSA, in PBS) overnight at 4° C.
7.) Wash for 3 times for 10 min with 100 ul PBS.
8.) Incubate for 90 min at room temperature with 50 μL of goat anti-rabbit Alex488 antibody at a 1:1,000 dilution in antibody dilution buffer (0.1% BSA, in PBS). Cover plate in foil to keep out of light.
9.) Wash for 3 times for 10 min with 100 μL PBS.
10.) Add 50 μL of 1.5 μM Propidium Iodide solution to each well to determine cell number at a 1:1,000 dilution in PBS (stock: 1.5 mM).
11.) Incubate at room temperature for 30 min.
12.) Seal the plate with a black cover-seal (supplied with plate).
13.) Load the plate into the Acumen Explorer and scan with the appropriate instrument settings.

T1 sequence (O00329 whole entry, species assumed): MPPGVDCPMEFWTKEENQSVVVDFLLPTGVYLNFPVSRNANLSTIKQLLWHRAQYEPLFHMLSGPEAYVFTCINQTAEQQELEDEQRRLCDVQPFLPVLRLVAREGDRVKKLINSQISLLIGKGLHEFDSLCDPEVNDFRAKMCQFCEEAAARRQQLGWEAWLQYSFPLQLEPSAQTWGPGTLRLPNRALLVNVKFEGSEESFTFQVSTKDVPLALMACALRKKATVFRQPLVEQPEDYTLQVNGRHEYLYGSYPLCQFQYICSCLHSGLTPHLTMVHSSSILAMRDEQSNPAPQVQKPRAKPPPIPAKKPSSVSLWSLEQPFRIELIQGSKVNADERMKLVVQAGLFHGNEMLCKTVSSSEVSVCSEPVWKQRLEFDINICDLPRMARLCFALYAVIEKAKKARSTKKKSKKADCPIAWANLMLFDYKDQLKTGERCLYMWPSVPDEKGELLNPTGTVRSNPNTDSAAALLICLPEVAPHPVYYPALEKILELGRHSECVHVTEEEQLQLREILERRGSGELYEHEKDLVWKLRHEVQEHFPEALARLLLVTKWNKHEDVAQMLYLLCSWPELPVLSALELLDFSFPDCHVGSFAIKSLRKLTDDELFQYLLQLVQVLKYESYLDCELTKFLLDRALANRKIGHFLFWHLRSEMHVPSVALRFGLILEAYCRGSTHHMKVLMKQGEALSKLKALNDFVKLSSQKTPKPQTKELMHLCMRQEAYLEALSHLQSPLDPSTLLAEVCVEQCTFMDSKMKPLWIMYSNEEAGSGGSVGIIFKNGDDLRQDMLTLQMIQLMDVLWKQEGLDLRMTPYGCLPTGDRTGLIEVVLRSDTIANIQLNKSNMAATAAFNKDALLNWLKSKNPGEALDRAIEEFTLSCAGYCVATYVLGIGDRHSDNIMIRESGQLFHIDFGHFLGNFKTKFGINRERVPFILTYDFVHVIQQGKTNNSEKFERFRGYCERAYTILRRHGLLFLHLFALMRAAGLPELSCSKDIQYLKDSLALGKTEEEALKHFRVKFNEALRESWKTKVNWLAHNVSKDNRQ
T1 sequence (P27986 whole entry partner, species assumed): as the sequence (P27986 whole entry partner, species assumed) above

SMILES: N#Cc1n[nH]c2ncnc(N3CCC[C@H]3c3nn4cccc4c(=O)n3-c3ccccc3)c12 [Compound 110, (S)-4-(2-(4-oxo-3-phenyl-3,4-dihydropyrrolo[1,2-f][1,2,4]triazin-2-yl)pyrrolidin-1-yl)-1H-pyrazolo[3,4-d]pyrimidine-3-carbonitrile]
PI3Kδ IH % @ 1 uM [1]: 72.8%
PI3Kγ IH % @ 1 uM [2]: 38.7%
PI3Kβ IH % @ 1 uM [3]: 23.9%

SMILES: CC(Nc1ncnc2[nH]cc(C#N)c12)c1cc2cccn2c(=O)n1-c1ccccc1 (stereo not shown) [Compound 121]
PI3Kδ IH % @ 1 uM [1]: 92.7%
PI3Kγ IH % @ 1 uM [2]: >100%
PI3Kβ IH % @ 1 uM [3]: 63.9%

SMILES: CC(=O)c1cnc(N)nc1N1C[C@H](C)[C@H]1c1nn2ccc(Cl)c2c(=O)n1-c1ccc(F)cc1 [Compound 206]
pIC50 [4]: 8.30

SMILES: N#Cc1c[nH]c2ncnc(N3C[C@@H](F)C[C@H]3c3nn4ccc(Cl)c4c(=O)n3-c3cccc(F)c3)c12 [Compound 213]
pIC50 [4]: 8.70

SMILES: N#Cc1cnc(N)nc1N1C[C@@H](F)C[C@H]1c1nn2ccc(Cl)c2c(=O)n1-c1ccccc1 [Compound 229]
pIC50 [4]: 7.96

SMILES: C[C@H]1CCN(c2ncnc3[nH]cc(C#N)c23)C1c1nn2ccc(Cl)c2c(=O)n1-c1ccccc1 (stereo partly shown) [Compound 233]
pIC50 [1]: 8.40
pIC50 [2]: 7.89
pIC50 [3]: 7.59

SMILES: Nc1nc2c(c(N3CC[C@H]3c3nn4ccc(Cl)c4c(=O)n3-c3ccccc3)n1)C(=O)CCN2 [Compound 241]
pIC50 [4]: 7.66

SMILES: CC(=O)c1c[nH]c2ncnc(N3C[C@@H](F)C[C@H]3c3nn4ccc(Cl)c4c(=O)n3-c3ccccc3)c12 [Compound 268]
pIC50 [4]: 7.72
PI3Kγ IH % @ 1 uM [2]: 100%

SMILES: CC(Nc1ncnc2[nH]cc(F)c12)c1cn2ccc(Cl)c2c(=O)n1-c1ccccc1 (stereo not shown) [Compound 270]
pIC50 [4]: 7.19

SMILES: CC(=O)c1c[nH]c2ncnc(NC(C)c3cn4ccc(Cl)c4c(=O)n3-c3ccccc3)c12 (stereo not shown) [Compound 272]
pIC50 [4]: 7.44

SMILES: CC(=O)c1cnc(N)nc1NC(C)c1cn2ccc(Cl)c2c(=O)n1-c1ccccc1 (stereo not shown) [Compound 273]
pIC50 [4]: 8.52

SMILES: Cc1nc(N)nc(N2CC[C@H]2c2nn3ccc(Cl)c3c(=O)n2-c2ccccc2)c1C#N [Compound 283]
pIC50 [4]: 8.52

SMILES: CC(Nc1ncnc2[nH]cc(F)c12)c1cc2ncc(Cl)n2c(=O)n1-c1ccccc1 (stereo not shown) [Compound 285]
pIC50 [4]: 7.34

SMILES: CC(=O)c1cnc(N)nc1NC(C)c1cc2ncc(Cl)n2c(=O)n1-c1ccccc1 (stereo not shown) [Compound 288]
pIC50 [4]: 7.37

SMILES: CC(=O)c1cnc(N)nc1N1CC[C@H]1c1nn2ccc(Cl)c2c(=O)n1-c1ccccc1 [Compound 299]
pIC50 [4]: 8.22

SMILES: CC(=O)c1cnc(N)nc1N1CC[C@H]1c1nn2ccc(Cl)c2c(=O)n1-c1ccc(F)cc1 [Compound 302]
pIC50 [4]: 7.37

SMILES: CC(=O)c1cnc(N)nc1N1CCCC1c1cn2ccc(Cl)c2c(=O)n1-c1ccccc1 (stereo not shown) [Compound 321]
pIC50 [4]: 8.05

SMILES: CC(=O)c1cnc(N)nc1N1CC[C@H]1c1nn2ccc(F)c2c(=O)n1-c1ccccc1 [Compound 323]
pIC50 [4]: 7.10

SMILES: CC(=O)c1cnc(N)nc1N1C[C@H](C)[C@H]1c1nn2ccc(F)c2c(=O)n1-c1ccccc1 [Compound 324]
pIC50 [4]: 7.20

SMILES: N#Cc1cnc(N)nc1N1C[C@@H](C#N)C[C@H]1c1nn2ccc(Cl)c2c(=O)n1-c1ccccc1 [Compound 351]
pIC50 [4]: 8.30

SMILES: N#Cc1c[nH]c2ncnc(N3CCCC3c3cn4ccc(Cl)c4c(=O)n3-c3ccccc3)c12 (stereo not shown) [Compound 364]
pIC50 [4]: 8.22

SMILES: N#Cc1cnc(N)nc1N1CCC1c1nn2ccc(Cl)c2c(=O)n1CC1CC1 (stereo not shown) [Compound 373]
pIC50 [1]: 7.57
pIC50 [2]: 6.44
pIC50 [3]: < 6.00

SMILES: N#Cc1c[nH]c2ncnc(N3CC(=O)C[C@H]3c3nn4ccc(Cl)c4c(=O)n3-c3ccccc3)c12 [Compound 380, (S)-4-(2-(5-chloro-4-oxo-3-phenyl-3,4-dihydropyrrolo[2,1-f][1,2,4]triazin-2-yl)-4-oxopyrrolidin-1-yl)-7H-pyrrolo[2,3-d]pyrimidine-5-carbonitrile]
pIC50 [4]: 7.72

SMILES: N#Cc1cnc(N)nc1N1CC(=O)C[C@H]1c1nn2ccc(Cl)c2c(=O)n1-c1ccccc1 [Compound 403]
pIC50 [4]: 7.96

Next, values leading:

PI3Kδ IH % @ 1 uM [1]: 94.6%
pIC50 [1]: 7.59
PI3Kγ IH % @ 1 uM [2]: 96.4%
pIC50 [2]: 6.64
PI3Kβ IH % @ 1 uM [3]: 34.5%
SMILES: N#Cc1ccn2nc([C@@H]3CCCN3c3ncnc4[nH]cnc34)n(-c3ccccc3)c(=O)c12 [Compound 112]

PI3Kδ IH % @ 1 uM [1]: 85.0%
pIC50 [1]: 6.90
PI3Kγ IH % @ 1 uM [2]: 20.4%
PI3Kβ IH % @ 1 uM [3]: 32.8%
SMILES: O=c1c2c(Cl)ccn2nc([C@@H]2CC(F)(F)CN2c2ncnc3[nH]cnc23)n1Cc1ccccn1 [Compound 159]

pIC50 [1]: 8.30
pIC50 [2]: 7.77
pIC50 [3]: 6.13
SMILES: C[S+]([O-])c1c[nH]c2ncnc(N3CCC[C@H]3c3nn4ccc(Cl)c4c(=O)n3-c3ccccc3)c12 (stereo partly shown) [Compound 188]

pIC50 [4]: 7.27
SMILES: O=c1c2c(F)ccn2nc([C@@H]2CCCN2c2ncnc3[nH]cnc23)n1-c1cccc(F)c1 [Compound 191]

pIC50 [4]: 7.66
SMILES: N#Cc1cnc(N)nc1N1CCC[C@H]1c1nn2ccc(Cl)c2c(=O)n1-c1ccccc1 [Compound 207]

pIC50 [4]: 7.82
SMILES: O=c1c2c(Cl)ccn2nc([C@@H]2C[C@H](F)CN2c2ncnc3[nH]cnc23)n1-c1cccc(F)c1 [Compound 214]

pIC50 [4]: 7.38
SMILES: CC(=O)c1c[nH]c2ncnc(N3CCC[C@H]3c3nn4ccc(F)c4c(=O)n3-c3ccccc3)c12 [Compound 218]

pIC50 [4]: 7.82
SMILES: N#Cc1cnc(N)nc1N1CCC[C@H]1c1nn2ccc(Cl)c2c(=O)n1-c1ccc(F)cc1 [Compound 231]

pIC50 [4]: 7.36
SMILES: N#Cc1cnc(N)nc1N1CCC[C@H]1c1nn2ccc(Cl)c2c(=O)n1-c1cccc(F)c1 [Compound 232]

pIC50 [1]: 8.70
pIC50 [2]: 7.92
pIC50 [3]: 7.30
SMILES: C[C@H]1CCN(c2ncnc3[nH]cnc23)C1c1nn2ccc(Cl)c2c(=O)n1-c1ccccc1 (stereo partly shown) [Compound 234]

pIC50 [4]: 7.68
SMILES: Nc1nc2c(c(N3CCC[C@H]3c3nn4ccc(Cl)c4c(=O)n3-c3ccccc3)n1)C(=O)CCN2 [Compound 242]

PI3Kδ IH % @ 1 uM [1]: 97.5%
pIC50 [1]: 8.22
PI3Kγ IH % @ 1 uM [2]: >100%
pIC50 [2]: 7.09
PI3Kβ IH % @ 1 uM [3]: 68.1%
SMILES: O=c1c2c(Cl)ccn2nc([C@@H]2CCCN2c2ncnc3[nH]cnc23)n1CC1CC1 [Compound 256]

pIC50 [4]: 7.27
pIC50 [1]: > 9.30
SMILES: O=c1c2c(Cl)ccn2nc([C@@H]2CCCN2c2ncnc3[nH]cnc23)n1-c1ccccn1 [Compound 311]

pIC50 [4]: 7.35
SMILES: CC(=O)c1c[nH]c2ncnc(N3CCC[C@H]3c3nn4ccc(Cl)c4c(=O)n3-c3ccccn3)c12 [Compound 340]

pIC50 [4]: 7.66
SMILES: CC(=O)c1cnc(N)nc1N1CCC[C@H]1c1nn2ccc(Cl)c2c(=O)n1-c1ccccc1 [Compound 369, (S)-2-(1-(5-acetyl-2-aminopyrimidin-4-yl)pyrrolidin-2-yl)-5-chloro-3-phenylpyrrolo[2,1-f][1,2,4]triazin-4(3H)-one]
